Reference: patent EP0840602B1, “USE OF A RETINOID FOR PREPARING AN ANTIBACTERIAL DRUG” (Pierre Fabre Dermo-Cosmetique, priority 1995, dated 1997)

Columns and labels:
St. epidermis [1] = test: Minimal inhibitory concentration (CMI), broth microdilution in microplates; assay type: cell-based; conditions: 10^6 germes par ml, 24 h at 32° C, first line of each compound in the table
Procedure: (§1) Les solutions-mère des produits cités ci-dessous ont été préparées dans l'alcool puis dissoutes dans l'eau distillée stérile de façon à être en final à 200 µg/ml et environ 10° éthanolique (sous lumière jaune). • . Rétinal all Trans • . Rétinal 9 Cis (Sigma R 5754 - lot 62 H 84 43) • . Rétinal 13 Cis (Sigma R 6256 - lot 81 H 8440)
(§2) Une distribution de 100 µl de bouillon Trypticase soja est réalisée dans chaque microcupule de la microplaque stérile (A).
(§3) Un témoin stérilité du milieu et un autre témoin de la vigueur de la souche sont réalisés en parallèle sur la microplaque.
(§4) L'ensemencement de la microplaque (A) a lieu sous la hotte après préparation de l'inoculum bactérien comme suit :
(§5) Les souches ayant été préalablement repiquées la veille sur gélose Trypticase soja, un inoculum 10^8 germes/ml est dispersé dans l'eau distillée stérile puis agité au vortex.
(§6) Les billes de verre assurant une bonne dispersion des souches, la mesure de la densité permet de préparer un inoculum adéquat par rapport à un étalonnage pré-établi et validé.
(§7) La répartition de la souche a lieu dans une deuxième microplaque (B) stérile par distribution de 100 µl d'inoculum par microcupule.
(§8) L'ensemencement a lieu par un repiquage de la microplaque (B) vers la microplaque (A), il se réalise ainsi une dilution au 1/100 de l'inoculum : la microplaque A contenant 10^6 germes par ml, peut être mise à l'étuve 24 h à 32° C.
(§9) La lecture de la plus grande dilution donnant lieu à une clarté identique au témoin stérilité du milieu, constitue la concentration minimale inhibitrice.

St. aureus [2] = test: as above; assay type: cell-based, Staphylococcus aureus; conditions: 10^6 germes par ml, 24 h at 32° C, first line of each compound in the table
Procedure: (§10) • Staphylococcus aureus 6538 P • Staphylococcus aureus de pathologies cutanées isolées de l'hôpital Rangueil Toulouse - (France)
• . Bouillon Trypticase soja (Biomérieux)
as §1, §2, §3, §4, §5, §6, §7, §8, §9

St. epidermis [3] = test: Minimal bactericidal concentration (CMB), subculture of the microplate on trypticase soy agar; assay type: cell-based; conditions: subculture 24-48 h at 32° C, second line of each compound in the table
Procedure: (§11) • . Gélose Trypticase soja (Biomérieux)
as §1
(§12) Le repiquage de la microplaque A sur une gélose trypticase soja préalablement coulée, permet après culture de 24-48 h à 32° C, la lecture de la concentration CMB = plus petite concentration ne permettant pas de croissance sur la gélose.

St. aureus [4] = test: as above; assay type: cell-based, Staphylococcus aureus; conditions: subculture 24-48 h at 32° C, second line of each compound in the table
Procedure: as §10, §11, §1, §12

[5] = system: adhésion des Gram positifs aux cornéocytes; test: Adhesion of staphylococci to corneocytes according to Cole and Silverberg (1986); assay type: cell-based; conditions: doses infrabactériostatiques
Text: Le rétinaldéhyde et ses isomères dont le 9 et le 13 cis-rétinaldéhyde possèdent une activité ciblée sur les Gram positifs, en particulier du genre Staphylococcus dont le staphylocoque doré. […] L'efficacité a pu être mise en évidence par le calcul des concentrations minimales inhibitrices et bactéricides sur des souches polyrésistantes issues de prélèvements cutanés isolés en milieu hospitalier et par études de l'adhésion du staphylocoque aux cornéocytes selon Cole et Silverber (1986).
• 1. Thabaut A. et Meyran M. (1989) Activité bactéricide comparée de quatorze antibiotiques sur staphylococcus aureus. Path. Biol. 37 : 321 - 328. • 2. Cole G.W.; Silvergerg N.L (1986) The adherence of staphylococcus aureus to human corneocytes. Arch. Dermatol. 122 : 166 - 169.

St. aureus 6538 P = test: Bactericidal kinetics and D. value; assay type: cell-based, Staphylococcus aureus
Procedure: Le niveau d'efficacité, de l'ordre du microgramme, a été prouvé pour des souches de staphylocoques plurirésistantes notamment aux aminosides, tétracyclines et macrolides. L'efficacité bactéricide a pu être chiffrée. En effet, le rétinal à 0,1% a une D. value (temps nécessaire pour faire chuter la population du nombre de germes) sur Staphylococcus aureus 6538 P de 14,8 minutes avec un coefficient de corrélation de 0,999 en ce qui concerne la droite de régression linéaire reliant la population de germes au temps de contact germe-rétinaldéhyde.
La D. value du Rétinal à 0,1 % P/V dans une solution éthanolique à 20 % V/V a été recherchée sur St. aureus 6538 P.
La cinétique des prélèvements microbiens a été réalisée aux temps 15', 30', 60', 4h et 6h. L'inoculum de départ étant de 1,0.10^4 germes par ml, la neutralisation se réalise d'après les temps cités dans du Bouillon Trypticase Soja, supplémenté par 10 % de Tween 80. Le neutralisant a été validé au préalable.

staphylococcus aureus = conditions: from reference 1 (Thabaut and Meyran 1989); cited from earlier work

| SMILES | CMI (St. epidermis [1]) | CMI (St. aureus [2]) | CMB (St. epidermis [3]) | CMB (St. aureus [4]) | other results |
| --- | --- | --- | --- | --- | --- |
| CC1=C(/C=C/C(C)=C\C=C\C(C)=C\C=O)C(C)(C)CCC1 [RETINAL 9 Cis, 9 cis-rétinaldéhyde] | 0,0001% | 0,0003% | 0,0006% | 0,0025% | – |
| CC1=C(/C=C/C(C)=C/C=C/C(C)=C\C=O)C(C)(C)CCC1 [RETINAL 13 Cis, 13 cis-rétinaldéhyde] | 0,0001% | 0,0006% | 0,0006% | 0,0025% | – |
| CC1=C(/C=C/C(C)=C/C=C/C(C)=C/C=O)C(C)(C)CCC1 [RETINALDEHYDE ALL TRANS, rétinaldéhyde tout trans] | 0,0001% | 0,0003% | 0,0003% | 0,0012% | – |
| CC(C=CC=C(C)C=CC1=C(C)CCCC1(C)C)=CC=O [Rétinal, rétinal] | – | – | – | – | inhibition de l'adhésion des Gram positifs aux cornéocytes [5]: activité inhibant d'adhésion des Gram positifs aux cornéocytes; D. value (St. aureus 6538 P; Rétinal 0,1 % P/V in 20 % V/V ethanolic solution, St. aureus 6538 P, linear regression r = 0,99): 14,8 mn; surviving germs, Temps 15 (St. aureus 6538 P; Rétinal 0,1 % P/V in 20 % V/V ethanolic solution, contact 15', starting inoculum 1,0.10^4 germes par ml): 1,4.10^3; surviving germs, Temps 30 (St. aureus 6538 P; Rétinal 0,1 % P/V in 20 % V/V ethanolic solution, contact 30', starting inoculum 1,0.10^4 germes par ml): 1,3.10^2; surviving germs, Temps 60 (St. aureus 6538 P; Rétinal 0,1 % P/V in 20 % V/V ethanolic solution, contact 60', starting inoculum 1,0.10^4 germes par ml): 0; surviving germs, Temps 4h (St. aureus 6538 P; Rétinal 0,1 % P/V in 20 % V/V ethanolic solution, contact 4h, starting inoculum 1,0.10^4 germes par ml): 0; surviving germs, Temps 6h (St. aureus 6538 P; Rétinal 0,1 % P/V in 20 % V/V ethanolic solution, contact 6h, starting inoculum 1,0.10^4 germes par ml): 0; Log, Temps 15 (St. aureus 6538 P; log of surviving germs, Rétinal 0,1 %, contact 15'): 3,15; Log, Temps 30 (St. aureus 6538 P; log of surviving germs, Rétinal 0,1 %, contact 30'): 2,11; D. value (temps nécessaire pour faire chuter la population du nombre de germes) (St. aureus 6538 P; rétinal à 0,1%, Staphylococcus aureus 6538 P, coefficient de corrélation 0,999): 14,8 minutes |
| CC[C@H]1OC(=O)[C@H](C)[C@@H](O[C@H]2C[C@@](C)(OC)[C@@H](O)[C@H](C)O2)[C@H](C)[C@@H](O[C@@H]2O[C@H](C)C[C@H](N(C)C)[C@H]2O)[C@](C)(O)C[C@@H](C)C(=O)[C@H](C)[C@@H](O)[C@]1(C)O [érythromycine] | – | – | – | – | temps pour faire chuter la population microbienne de 2 Log 10 (staphylococcus aureus): 48 heures |
